This passage reports GI50 and TGI results from PubChem BioAssay (NCI).

Test systems include ACHN renal; DU-145 prostate; HCC-2998 colon; HOP-62 NSCLC; HS 578T breast; M14 melanoma; MDA-MB-231 breast; MDA-MB-435; SF-295 CNS; SK-OV-3 ovarian.
Common to all, as to assay: NCI-60 cell line screen, 48 h

Each structure is given as a SMILES string.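 These data come from cells grown in 96-well plates and exposed to compound for 48 hours at five concentrations. GI50 is the concentration that inhibits growth by half. At the TGI there is no net growth.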 Bounds are passed on as bounds.

Consider `CNCc1cccc2c1OCCOCCOCCC(C)S(=O)(=O)c1ccc(cc1)-c1cnc(N)c(n1)C(=O)N2` (stereo not given), for which the GI50 was 1300 nM in the assay with ACHN renal; 1250 nM in the assay with DU-145 prostate; 4.53 µM with HCC-2998 colon; 1140 nM in the assay with HOP-62 NSCLC; 602 nM in the assay on HS 578T breast; 1270 nM in the assay on M14 melanoma. Moreover, the GI50 is 2340 nM in the assay with MDA-MB-231 breast, 1570 nM in the assay with MDA-MB-435, 2840 nM in the assay on SF-295 CNS and 525 nM in the assay on SK-OV-3 ovarian. The TGI in the assay with ACHN renal came to 2820 nM; in the assay on DU-145 prostate, 3.41 µM; in the assay on HCC-2998 colon, 17.2 µM; in the assay with HOP-62 NSCLC, 4.82 µM; with HS 578T breast, 3.09 µM; in the assay with M14 melanoma it was 3.03 µM. Moreover, the TGI in the assay with MDA-MB-231 breast was 5.5 µM; in the assay with MDA-MB-435 it was 3.3 µM; with SF-295 CNS it was 9.07 µM; with SK-OV-3 ovarian, 2870 nM.
Consider `CN(C)c1ccc(C2CC(C)(O)Oc3cc4c(cc32)OCO4)cc1` (stereo not given), for which the TGI was greater than 100000 nM in the assay with ACHN renal; greater than 100 µM with DU-145 prostate; 95.1 µM in the assay on HCC-2998 colon; greater than 100 µM in the assay on HOP-62 NSCLC; greater than 100 µM in the assay with HS 578T breast; greater than 100 µM in the assay on M14 melanoma. Also, the TGI with MDA-MB-231 breast was greater than 100 µM; in the assay on MDA-MB-435 it was 74.1 µM; with SF-295 CNS, greater than 100 µM; with SK-OV-3 ovarian, greater than 100000 nM.
